The values below come from PMC10321640, “The VIPR2-selective antagonist KS-133 changes macrophage polarization and exerts potent anti-tumor effects as a single agent and in combination with an anti-PD-1 antibody” (PLOS ONE, 2023).

Where a SMILES comes first, the peptide text is derived from it. Bridges are numbered along the chain shown (N, C = ends).

This data set can be described thus: Water solubility of the peptides, with or without surfactant (appearance). In kind it is physicochemical. The method, then:
KS-133 and KS-133(P3S) (a substitution of proline at position three of KS-133 with serine) were synthesized at SCRUM Inc. (Tokyo, Japan) using Fmoc-based solid-phase peptide synthesis as previously reported. After reverse phase–high-performance liquid chromatography (RP–HPLC) purification, structural assignment was performed by matrix-assisted laser desorption ionization–time-of-flight mass spectrometry (MS). All analytical data of peptides in this report are presented in S1 Table. Cremophor EL® (CrEL) (09727–14) was purchased from Nacalai Tesque, Inc. (Kyoto, Japan). The nanoformulation of peptide using CrEL was done by basically according to the method as previously reported. First, KS-133 or KS-133(P3S) (20 mg) was dissolved in DMSO (100 μL), giving a concentration of 200 mg/mL. Next, CrEL (100 μL) was mixed with purified water (350 μL). The peptide solution was added dropwise to the stirring CrEL solution and mixed. Then, the peptide/CrEL solution made into a suspension by repeated vortex agitation and sonication at approximately 50°C. Purified water (450 μL) was added to the peptide/CrEL solution, and the same process was repeated. […]
Fig 3 Nanoformulation of peptides using CrEL and their characterization. […] The determined particle size of KS-133 NPs was approximately 15.34 nm, and that of KS-133(P3S) NPs was approximately 15.96 nm. […]

Take `CC[C@H](C)[C@H](NC(=O)[C@H](CC(C)C)NC(=O)[C@@H]1CC(=O)NCCCC[C@@H]2NC(=O)[C@@H]3CCCN3C(=O)[C@H](CC(C)C)NC(=O)[C@H](Cc3ccc(O)cc3)NC(=O)[C@@H]3CCCN3C(=O)[C@@H]3CCCN3C(=O)[C@@H](NC(C)=O)CSSC[C@H](NC(=O)[C@H](CC(C)C)NC(=O)[C@H](Cc3ccc(O)cc3)NC2=O)C(=O)N1)C(N)=O` [KS-133] (Ac-CPPYLPKYLCDLI-NH2; disulfide 1-10; lactam 7-11): the “concentration that could be dissolved in DMSO(10%)/CrEL(10%)” value (Fig 3C, transparent solution immediately after preparation) is no less than 20000 µg/mL. Also, the “solubility in aqueous solution / water solubility (in words)” value (without surfactant) is reported as “poor solubility”.
